Assay: molar heat capacity at constant pressure
Conditions: 101.33 kPa, Crystal

CCn1cc[n+](C)c1.[Br-] [1-ethyl-3-methylimidazolium bromide]
Small (less than 1 g) adiabatic calorimetry
Conditions	molar heat capacity at constant pressure [J/K/mol]
5 K	0.322
10 K	3.336
15 K	9.171
20 K	16.81
25 K	25
30 K	33.08
35 K	40.68
40 K	47.53
45 K	53.77
50 K	59.49
60 K	69.57
70 K	78.03
80 K	85.47
80.24 K	85.68
83.06 K	87.67
85.79 K	89.36
88.55 K	91.21
90 K	92.12
91.34 K	93.01
94.15 K	94.8
96.98 K	96.52
99.83 K	98.18
100 K	98.11
102.69 K	99.88
105.57 K	101.51
108.46 K	103.1
110 K	103.8
111.37 K	104.69
114.29 K	106.29
117.22 K	107.83
120 K	109.1
120.16 K	109.35
123.11 K	110.89
126.08 K	112.42
129.06 K	113.89

Conditions	molar heat capacity at constant pressure [J/K/mol]
5.194 K	0.3611
5.579 K	0.4605
5.885 K	0.5503
6.228 K	0.6668
6.606 K	0.8178
6.985 K	0.9897
7.365 K	1.183
7.747 K	1.406
8.13 K	1.655
8.515 K	1.937
8.9 K	2.249
9.286 K	2.597
9.673 K	2.979
10.06 K	3.401
10.55 K	3.999
11.14 K	4.807
11.73 K	5.74
12.32 K	6.81
12.91 K	7.996
13.54 K	8.107
14.21 K	8.109
14.85 K	8.978
15.58 K	10.01
16.41 K	11.22
17.25 K	12.49
18.08 K	13.77
18.92 K	15.08
19.75 K	16.41
20.88 K	18.28
22.31 K	20.62
23.74 K	22.98
25.17 K	25.34
26.6 K	27.65
28.05 K	30.01
29.5 K	32.33
30.94 K	34.65
32.4 K	36.88
33.85 K	39.07
35.31 K	41.18
36.76 K	43.24
38.22 K	45.23
39.68 K	47.2
41.38 K	49.4
43.34 K	51.87
45.31 K	54.3
47.28 K	56.63
49.24 K	58.85
51.21 K	60.97
53.18 K	63
55.14 K	65
57.11 K	66.93
59.08 K	68.82
61.05 K	70.7
63.03 K	72.54
65 K	74.25
66.98 K	75.86
68.96 K	77.42
70.95 K	78.97
72.93 K	80.48
74.92 K	82.06
76.91 K	83.6
78.9 K	85.15
80.9 K	86.6
82.91 K	87.82

Reference: the NIST ThermoML archive (doi:10.1016/j.jct.2006.05.008)
